The values below come from US20130303788A1, “METHOD OF PRODUCING BIPHENOLIC COMPOUND, NOVEL BIPHENYL COMPOUND AND SYNTHESIS METHOD THEREOF, AND PHARMACEUTICAL COMPOSITION FOR TREATING PARKINSON'S DISEASE” (Tzu Chi University, priority 2012, published 2013).

In series [1] the test system is SH-SY5Y human neuroblastoma cells. The series is described as follows: Effects on oxidative stress (TBHP or CHP), MTT assay. In kind it is cell-based. Conditions: for prevention of cell death (relative cell viability) after exposure to CHP / prevention of cell death (relative cell viability) after exposure to TBHP: 10 μM for 30 minutes, vs pathological control, FIG. 9; for prevention of cell death (relative cell viability) after exposure to CHP: then CHP 300 μM for 3 hours; for prevention of cell death (relative cell viability) after exposure to TBHP: then TBHP 300 μM for 3 hours. As for the experimental part:
(§1) 3-(4,5-Dimethylthiazol-2-yl)-2,5-diphenyltetrazolium bromide (MTT) assay was conducted generally as follows. A MTT solution was added to culture of the cells in the respective well so that a MTT concentration of 0.5 mg/mL was reached, followed by cultivation for 4 hours. The liquid in the respective well was removed, and dimethylsulfoxide (DMSO) was added into the respective well to dissolve formazan dye. Absorbance of the mixture in the respective well at 570 nm (OD570) was measured using an OPTImax microplate reader (Molecular Devices).
The SH-SY5Y human neuroblastoma cells were respectively treated with products 1, 2, 3, 4, 5, 7, and 3,3′-diallyl-biphenyl-4,4′-diol (compound 55) (10 μM) for 30 minutes. 3,3′-diallyl-biphenyl-4,4′-diol (compound 55) was prepared from commercially available 4,4′-biphenol (compound 54) generally according to the method as described in Ablard, F. et al., Bioorg. Med. Chem. Lett. 2007, 17, 4428. Subsequently, the SH-SY5Y human neuroblastoma cells were exposed to cumene hydroperoxide (CHP) or tert-butyl hydroperoxide (TBHP) (300 μM, Riedel-de Haen) for 3 hours after the treatment with the respective biphenolic compound of formula (I).
(§2) Cell viability was evaluated as follows. The SH-SY5Y human neuroblastoma cells were subjected to the MTT assay as described in section 1 of General Procedures. The relative cell viability (%) was calculated by substituting the absorbance into the following formula:
where D=relative cell viability • E=OD570 of the pathological control, or the SH-SY5Y human neuroblastoma cells treated with the respective biphenolic compound of formula (I) • F=OD570 of the normal control The obtained data were subjected to the statistical analysis as described in section 5 of General Procedures.

For series [2] the test system is unchanged. The series is described as follows: Effects on MPP+ neurotoxicity, MTT assay. It is filed as cell-based. The conditions noted are these: 10 μM or 30 μM; MPP+ 1 mM for 24 hours; FIG. 10. The procedure: as §1
SH-SY5Y human neuroblastoma cells were exposed to neurotoxic 1-methyl-4-phenylpyridinium (MPP^+) (1 mM) for 24 hours, while the same were treated with the respective one of products 1, 2, 3, 4, 5, 7, and 3,3′-diallyl-biphenyl-4,4′-diol (compound 55) (10 μM or 30 μM).
as §2
where G=relative cell viability • H=OD570 of the pathological control, or the SH-SY5Y human neuroblastoma cells treated with the respective biphenolic compound of formula (I) • I=OD570 of the normal control The obtained data were subjected to the statistical analysis as described in section 5 of General Procedures.
(In general: Tetrazolium dyes change colour on reduction, which living cells bring about.)

Series [3] deals with excitotoxicity induced by excitatory amino acids. Conditions: Lin Yi-Ruu et al. (2006); cited from earlier work.
The subject of the next series is inflammatory pain. Conditions: Lin Yi-Ruu et al. (2007); cited from earlier work.
Series [4] has as its system mouse model of PD (6-OHDA unilateral striatal lesion). Kind of series: Apomorphine-induced rotation test in 6-OHDA mouse model of PD. In kind it is in vivo, NMRI mice. The procedure: The respective NMRI mouse was anesthetized with ketamine ([…], intraperitoneally). Subsequently, the respective NMRI mouse was placed into a stereotactic frame with nose and ear bars specially designed for mice. 6-hydroxydopamine (6-OHDA) was injected with saline containing 0.02% ascorbic acid (as a vehicle) into the right striatum of the respective NMRI mouse so that unilateral striatal lesion was induced (i.e., damage to dopaminergic neurons in the unilateral striatum was induced). The injection was conducted at a rate of 1 μL/minute using a Hamilton syringe at the following coordinates: AP: −0.9 mm; ML: −1.9 mm; DV: −2.2 mm with respect to bregma, and a final dose of 15 μg was administered. The needle was left standing for 5 minutes after the injection was finished, and was slowly withdrawn.
The respective NMRI mouse was allowed to habituate to the ambient environment for 10 minutes before the apomorphine-induced rotation test was performed. Apomorphine was then injected intraperitoneally into the respective NMRI mouse at a dose of 0.5 mg/kg. The respective NMRI mouse was placed in a glass bowl with a diameter of 20 cm and was attached to an automatic rotometer (TSE, Bad Homburg, Germany) via a specially designed harness. Each circular movement exceeding 30° was recorded. The contralateral movements (toward the nonlesioned side) and ipsilateral movements (toward the lesioned side) of the NMRI mice were counted during a period of 60 minutes. The net rotation was calculated according to the following formula:
where A=net rotation • B=the total number of ipsilateral movements during the period of 60 minutes • C=the total number of contralateral movements during the period of 60 minutes 4. Determination of TH (Tyrosine Hydroxylase) Expression Level and iNOS (Inducible Nitric Oxide Synthase) Expression Level: […]
6-OHDA was injected into NMRI mice according to the method as described in section 2 of General procedures. Product 1 or product 2 was administered intraperitoneally to the respective NMRI mouse at a dose of 5 mg/kg, 1 mg/kg, 0.5 mg/kg, 0.1 mg/kg, or 0.05 mg/kg for 14 consecutive days, starting on Day 7 after the 6-OHDA injection. NMRI mice into which a vehicle (saline containing 0.02% ascorbic acid) was injected (generally according to the method as described in section 2 of General Procedures, except that 6-OHDA was not injected), and which were not treated with product 1 or product 2 after the injection of the vehicle, served as a sham operated control. NMRI mice into which 6-OHDA was injected and which were not treated with product 1 or product 2 after the 6-OHDA injection served as a pathological control. The rotational behavior of the NMRI mice was evaluated using the apomorphine-induced rotation test as described in section 3 of General Procedures on Days 7, 14, and 21 after the 6-OHDA injection.

Series [5] deals with TH (Tyrosine Hydroxylase). Kind of series: TH expression level (TH immunohistochemistry) in 6-OHDA mouse model of PD. Conditions: i.p. 14 consecutive days starting Day 7, Day 21 after 6-OHDA, 16. In kind it is in vivo, NMRI mice. The procedure: The respective NMRI mouse was deeply anaesthetized with thiopental (50 mg/kg, intraperitoneally). The respective NMRI mouse was perfused transcardially with a heparin solution (0.05% heparin in 0.1 M PBS), and was subsequently perfused with 100 mL of ice-cold fixative (4% paraformaldehyde in 0.1 M PBS). The brain of the respective NMRI mouse was removed and was postfixed in the same ice-cold fixative for 12 hours, followed by dehydration in 30% sucrose in 0.1 M PBS. The brain was frozen and was subjected to tissue slicing. Serial coronal sections (a thickness of 20 μm) were cut on a freezing microtome and were placed in PBS. The sections were later processed for free-floating TH or iNOS immunohistochemistry.
The sections were rinsed three times with PBS (30 minutes for each time), were treated with 3% H2O2/10% methanol in PBS for 30 minutes for quenching the endogenous peroxidase activity, and were rinsed three times with PBS. After preincubation with 0.5% normal goat serum (NGS)/0.2% Triton in PBS, the sections were incubated with a primary antibody (anti-TH antibody or anti-iNOS antibody, 1:5000, Novus Biologicals, Inc., Littleton, Colo., USA) in 0.5% NGS/PBS at 4° C. for 16-18 hours. After being rinsed three times with PBS, the sections were incubated with a biotinylated goat anti-rabbit IgG (1:200) in PBS for 1 hour. Subsequently, the sections were rinsed three times with PBS and were stained with 0.05% diaminobenzidine/0.03% H2O2 in PBS for 5 minutes. The respective section was placed on a gelatin-coated slide, dehydrated through ascending concentrations of alcohol, and covered with a slipcover for observation under a light microscope.
The obtained data were subjected to the statistical analysis as described in section 5 of General Procedures. TH expression level in the striatum was determined according to the method as described in section 4 of General Procedures.
TH expression level in the striatum and the substantia nigra (SN), and iNOS expression level in the striatum were determined according to the method as described in section 4 of General Procedures on Day 21 after the injection of 6-OHDA or the vehicle.
In addition, the optical density regarding the lesioned and unlesioned sites in the striatum and SN of the NMRI mice (e.g., the sham operated control, the pathological control, and the NMRI mice treated with product 1) was determined from the obtained photomicrographs illustrating TH expression level via ImageJ software (National Institutes of Health). The relative optical density was calculated using the following formula:
where J=relative optical density • K=optical density of the lesioned site • L=optical density of the unlesioned site

Consider `CCCc1ccc(O)c(-c2ccc(O)c(CCC)c2)c1` [product 3, 5,3′-Dipropyl-biphenyl-2,4′-diol], for which, in series [1], the “prevention of cell death (relative cell viability) after exposure to CHP” value is “significantly prevented cell death” and the “prevention of cell death (relative cell viability) after exposure to TBHP” value was “significantly prevented cell death”. Further, the “concentration dependence of alleviation of MPP+ cytotoxicity” value (from here on “concentration dependence”) in series [2] is “alleviated the cytotoxicity of MPP^+ in a concentration-dependent manner”.

In the case of `C#CCc1ccc(O)c(-c2ccc(O)c(CC=C)c2)c1` [product 5, 3′-Allyl-5-prop-2-ynyl-biphenyl-2,4′-diol], in series [1], the “prevention of cell death (relative cell viability) after exposure to CHP” value is “significantly prevented cell death” and the “prevention of cell death (relative cell viability) after exposure to TBHP” value is recorded as “significantly prevented cell death”. In addition, the “concentration dependence” value in series [2] is recorded as “alleviated the cytotoxicity of MPP^+ in a concentration-dependent manner”.

Consider `C=CCc1cc(-c2cccc(O)c2CC=C)ccc1O` [product 7, 2,3′-Diallyl-biphenyl-3,4′-diol], for which, in series [1], the “prevention of cell death (relative cell viability) after exposure to CHP” value is “significantly prevented cell death” and the “prevention of cell death (relative cell viability) after exposure to TBHP” value is “significantly prevented cell death”. In addition, the “concentration dependence” value in series [2] is “alleviated the cytotoxicity of MPP^+ in a concentration-dependent manner”.

Take `C=CCc1cc(-c2ccc(O)c(CC=C)c2)ccc1O` [compound 55, 3,3′-diallyl-biphenyl-4,4′-diol]: in series [1], the “prevention of cell death (relative cell viability) after exposure to CHP” value was “significantly prevented cell death” and the “prevention of cell death (relative cell viability) after exposure to TBHP” value is given as “significantly prevented cell death”.

In the case of `C=CCc1ccc(O)c(-c2cc(CC=C)ccc2O)c1` [magnolol, reference compound], the “neuroprotective effects via anti-oxidative abilities and antagonist actions against excitotoxicity” value in series [3] was “able to exert neuroprotective effects”. Moreover, the “alleviation of inflammatory pain in an animal model” value in the series on inflammatory pain is “effective in alleviating inflammatory pain”.

As to `C=CCc1ccc(O)c(-c2ccc(O)c(CCC)c2)c1` [product 4, 5-Allyl-3′-propyl-biphenyl-2,4′-diol], in series [1], the “prevention of cell death (relative cell viability) after exposure to CHP” value is listed as “significantly prevented cell death” and the “prevention of cell death (relative cell viability) after exposure to TBHP” value was “significantly prevented cell death”. The “concentration dependence” value in series [2] is reported as “alleviated the cytotoxicity of MPP^+ in a concentration-dependent manner”.

Turning to `C=CCc1cc(-c2cc(CCC)ccc2O)ccc1O` [product 2, 3′-Allyl-5-propyl-biphenyl-2,4′-diol], in series [1], the “prevention of cell death (relative cell viability) after exposure to CHP” value was “significantly prevented cell death” and the “prevention of cell death (relative cell viability) after exposure to TBHP” value is recorded as “significantly prevented cell death”. Moreover, the “rank among the tested biphenolic compounds in preventing cell death, CHP” value in series [1] (10 μM, CHP 300 μM 3 hours) is “the most effective in preventing cell death among them”. Moreover, the “rank among the tested biphenolic compounds in preventing cell death, TBHP” value in series [1] (10 μM, TBHP 300 μM 3 hours) is on record as “the most effective in preventing cell death among them”. In addition, in series [2], the “concentration dependence” value is recorded as “alleviated the cytotoxicity of MPP^+ in a concentration-dependent manner”. In series [4] (0.1 mg/kg i.p., 14 consecutive days starting Day 7 after 6-OHDA, FIG. 13), the “unilateral rotations (apomorphine-induced), subchronic post-treatment, 0.1 mg/kg” value is recorded as “significantly inhibited unilateral rotations”. The “unilateral rotations (apomorphine-induced), subchronic post-treatment, 0.5 mg/kg” value in series [4] (0.5 mg/kg i.p., 14 consecutive days starting Day 7 after 6-OHDA, FIG. 13) is given as “significantly inhibited unilateral rotations”. Further, the “unilateral rotations (apomorphine-induced), subchronic post-treatment, 1 mg/kg” value in series [4] (1 mg/kg i.p., 14 consecutive days starting Day 7 after 6-OHDA, FIG. 13) is “significantly inhibited unilateral rotations”. In addition, the “restoring activity against neurotoxin-induced motor dysfunction compared with product 1” value in series [4] (subchronic post-treatment, 14 days starting Day 7 after 6-OHDA) is given as “more potent restoring activity”. For the same compound, the “loss of TH-ir fibers in the striatum, subchronic post-treatment” value in series [5] (FIGS. 14, 15(A)) is recorded as “significantly alleviated the loss of TH-ir fibers”. The “loss of TH-ir fibers in the substantia nigra (SN), subchronic post-treatment” value in series [5] (FIGS. 14, 15(B)) is “significantly alleviated the loss of TH-ir fibers”.
